From patent EP3733658B1, “PRENYLATED BENZOPYRANES AS PPAR AGONISTS” (Universitat de València, priority 2017, dated 2019)

Experiments:
[1] = test system: mononuclear cell adhesion induced by TNFα; assay: Mononuclear cell adhesion to TNFα-stimulated HUVEC transfected with control or RXRα, PPARα, PPARγ specific siRNA; assay type: cell-based, human; conditions: 20 h
RXRα/PPARγ interaction = biological target: T1, RXRα/PPARγ interaction (Homo sapiens, UniProt P37231); assay: Immunoprecipitation of PPARγ followed by Western blot for RXRα in HUVEC; assay type: cell-based; conditions: pretreated HUVEC
T1 construct: endogenous in cells; host or cells: HUVEC
T1 sequence (P37231 29-505 limits assumed): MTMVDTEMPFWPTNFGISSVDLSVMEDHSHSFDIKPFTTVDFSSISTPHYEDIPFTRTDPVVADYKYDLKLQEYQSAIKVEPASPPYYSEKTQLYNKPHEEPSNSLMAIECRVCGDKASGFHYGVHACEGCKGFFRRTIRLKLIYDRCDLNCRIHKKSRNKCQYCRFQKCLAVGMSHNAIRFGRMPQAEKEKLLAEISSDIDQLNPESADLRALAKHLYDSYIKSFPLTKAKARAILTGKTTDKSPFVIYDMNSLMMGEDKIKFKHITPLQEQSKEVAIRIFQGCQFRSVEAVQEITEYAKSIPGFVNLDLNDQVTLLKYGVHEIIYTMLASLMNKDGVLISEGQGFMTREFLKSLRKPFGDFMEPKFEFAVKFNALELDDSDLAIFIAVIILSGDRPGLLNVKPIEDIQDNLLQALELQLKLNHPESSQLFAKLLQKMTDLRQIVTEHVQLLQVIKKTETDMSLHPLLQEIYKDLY
T1 sequence (P19793 1-462 partner): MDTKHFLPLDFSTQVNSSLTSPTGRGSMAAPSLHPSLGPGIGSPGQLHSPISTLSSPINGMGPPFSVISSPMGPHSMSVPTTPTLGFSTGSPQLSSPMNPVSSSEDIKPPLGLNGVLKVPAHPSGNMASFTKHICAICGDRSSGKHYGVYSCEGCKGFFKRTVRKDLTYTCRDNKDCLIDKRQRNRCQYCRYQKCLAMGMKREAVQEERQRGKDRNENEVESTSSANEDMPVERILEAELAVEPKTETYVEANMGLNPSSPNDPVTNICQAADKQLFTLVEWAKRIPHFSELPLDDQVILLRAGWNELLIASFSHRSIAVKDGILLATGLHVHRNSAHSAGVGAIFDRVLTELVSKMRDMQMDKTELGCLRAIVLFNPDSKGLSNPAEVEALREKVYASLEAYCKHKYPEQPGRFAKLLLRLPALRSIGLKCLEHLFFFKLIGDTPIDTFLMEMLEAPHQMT
Method: For the immunoprecipitation, the protein extracts were obtained in 50 mM Tris-HCl (pH 8), 150 mM NaCl, 1% Nonidet P-40 and protease (1 mM PMSF, 40 µg/mL aprotinin and 40 µg/mL leupeptin) and phosphatase inhibitors. Then the protein extracts (~200 µg) were incubated with 5 µg of an antibody against PPARγ. Immunocomplexes were precipitated using an anti-rabbit IgG beads (cat# 8800, eBioscience, San Diego, CA) and suspended in a sample buffer with 50 mM dithiotreitol (DTT). Western blot was performed with an antibody against RXRα and the membranes were incubated with the secondary HRP-conjugate Rabbit TrueBlot (eBioscience, San Diego, CA) as secondary antibody. Chemoluminescence signals were developed with ECL (GE Healthcare, Madrid, Spain).

human neutrophils = assay: Annexin V / propidium iodide flow cytometry of apoptosis and survival, neutrophils; assay type: cell-based; conditions: 24 h, compared to the vehicle
Method: (§1) In addition, the apoptosis and survival rate for human neutrophils and HUVEC was determined by double staining with annexin V and propidium iodide (PI) by flow cytometry.
(§2) Cytofluorometric analysis of apoptosis and survival. The kit FITC Annexin V Apoptosis Detection kit (BD Bioscience, San Jose, CA) was used. The staining protocol and all the reagents were supplied with the commercial kit. HUVEC were separated from the culture flasks by accutase (StemPro® Accutase® Cell dissociation reagent, Thermofischer Scientific Waltham, MA). Both cell types were incubated at 37°C for 24h in the presence or absence of the test compounds. Confluent HUVEC and freshly isolated neutrophils were washed, resuspended in binding buffer 1x (1 × 10^6 cells/mL) and stained with annexin V conjugated with FITC and propidium iodide (PI) as described in the manufacturer's instructions. The cells were analyzed in a BD FACSVerse Flow Cytometer (BD Biosciences, San Jose, CA) and differentiated as early apoptosis cells (annexin V^+ and PI^-), late apoptosis cells and/or necrotic cells (annexin V^+ and PI^+), and live cells (annexin V^- and PI^-).

HUVEC = assay: Annexin V / propidium iodide flow cytometry of apoptosis and survival, HUVEC; assay type: cell-based, human; conditions: tested concentrations including 100 µM, compared with the vehicle
Method: as §1, §2

ob/ob mice = assay: Treatment of ob/ob mice: blood glucose; assay type: in vivo
Method: This study used male ob/ob mice (C57BU6J) (Charles River laboratories, Chatillon-sur-Chalaronne, France).
The mice were housed in individual cages in a room with controlled temperature, humidity and light. […] The mice were allowed to acclimate for ten days prior to the study.
The control ob/ob mice were just administered with vehicle (physiological saline solution with HEC 1%). […] The compounds were prepared freshly each day in a 1% suspension of HEC for oral administration. Randomization was performed based on the glycaemia values on day 0. For the duration of the experiment the amount of food ingested and the body weight were determined daily for each mouse. Every day between 9:00 and 11:00 a.m. (prior to treatment) blood glucose levels were measured using (Contour next USB Blood glucose meter, BAYER, Basel, Switzerland).

liver = assay: Treatment of ob/ob mice: liver weight and liver triglycerides; assay type: in vivo; conditions: oral, 4 days
Source text: 6 animals were used in each group in independent experiments (n=6).

C/C(=C\CCC1(C)CCc2cc(O)cc(C)c2O1)CC/C=C(\C)C(=O)O (stereo not shown) [Polycerasoidol, 1, polycerasoidol]
inhibitory response on mononuclear cell adhesion after PPARα silencing ([1]; PPARα siRNA HUVEC, polycerasoidol 10 µM, rosiglitazone 1 µM): not affected
inhibitory response on mononuclear cell adhesion in HUVEC deficient in PPARγ ([1]; PPARγ siRNA HUVEC, 10 µM): annulled
inhibitory effect on mononuclear cell adhesion after RXRα silencing ([1]; RXRα specific siRNA HUVEC, 10 µM): completely suppressed
TNFα-induced adhesion of mononuclear cells ([1]; control siRNA transfected HUVEC, polycerasoidol 10 µM, rosiglitazone 1 µM): inhibited
RXRα/PPARγ interaction (RXRα/PPARγ interaction): increased RXRα/PPARγ interaction

CCOC(=O)CCC(C)=CCCC1(C)CCc2cc(OCc3ccc(F)cc3)ccc2O1 (stereo not shown) [Compound 9]
effect on neutrophil survival (human neutrophils; 30 µM): 1.07%
effect on cell survival (human neutrophils; 100 µM): 1.55%
toxicity (HUVEC): absence of toxicity
glucose blood level, day 0 (before treatment) (ob/ob mice; group given 30 mg/Kg/d): 261 mg/dL
glucose blood level after 4 days (ob/ob mice; oral, 30 mg/Kg/d): 194 mg/dL
decrease in glucose blood levels compared to day 0 (ob/ob mice; oral, 30 mg/Kg/d, after 4 days): 20%
triglyceride content in the liver compared to the ob/ob control group (liver; 30 mg/Kg/d): did not accumulate significantly
liver weight with respect to the ob/ob control group (liver): non-significant weight increase
